Two molecules from ChEMBL document CHEMBL5678818, “Discovery of potent SOS1 inhibitors that block RAS activation via disruption of the RAS-SOS1 interaction” (Proc Natl Acad Sci U S A, 2019) can be followed below.

Active and inactive are the calls of the source. The rule behind the calls is not given here.

In test [1] the target is T1, Dual specificity tyrosine-phosphorylation-regulated kinase 2 (Homo sapiens) (UniProt Q92630).
T1 sequence (whole entry): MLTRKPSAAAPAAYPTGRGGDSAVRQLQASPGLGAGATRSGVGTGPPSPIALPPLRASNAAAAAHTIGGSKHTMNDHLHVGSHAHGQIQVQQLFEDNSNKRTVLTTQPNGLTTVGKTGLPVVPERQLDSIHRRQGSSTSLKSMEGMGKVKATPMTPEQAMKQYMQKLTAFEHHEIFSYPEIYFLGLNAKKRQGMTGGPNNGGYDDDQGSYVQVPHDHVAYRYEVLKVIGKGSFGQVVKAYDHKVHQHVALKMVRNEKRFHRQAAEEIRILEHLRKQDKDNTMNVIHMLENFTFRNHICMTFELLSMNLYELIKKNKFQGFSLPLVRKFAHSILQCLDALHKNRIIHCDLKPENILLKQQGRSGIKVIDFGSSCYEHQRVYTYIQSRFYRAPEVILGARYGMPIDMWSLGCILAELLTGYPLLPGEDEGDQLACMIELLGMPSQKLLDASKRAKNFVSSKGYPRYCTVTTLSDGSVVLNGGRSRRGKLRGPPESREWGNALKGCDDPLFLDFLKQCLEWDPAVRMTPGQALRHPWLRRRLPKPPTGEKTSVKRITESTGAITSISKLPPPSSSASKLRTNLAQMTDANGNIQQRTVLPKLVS
The test is described as follows: Inhibition of DYRK2 (unknown origin) assessed as residual activity at 100 nM by KINOMEscan analysis relative to control.

Test [2] addresses Serine/threonine-protein kinase 26 (Homo sapiens) (UniProt Q9P289). The test is described as follows: Inhibition of MST4 (unknown origin) assessed as residual activity at 100 nM by KINOMEscan analysis relative to control.
In test [3] the target is Cyclin-dependent kinase 14 (Homo sapiens) (UniProt O94921). As to the kind of experiment: Inhibition of PFTK1 (unknown origin) assessed as residual activity at 100 nM by KINOMEscan analysis relative to control.
The target in test [4] is Interleukin-1 receptor-associated kinase 1 (Homo sapiens) (UniProt P51617). As to the kind of experiment: Inhibition of IRAK1 (unknown origin) assessed as residual activity at 100 nM by KINOMEscan analysis relative to control.
The species entered for test [5] is Homo sapiens. The test is described as follows: Inhibition of N-terminal His10-tagged 15N-labeled recombinant human KRAS G12C/C118S mutant (1 to 169 residues) expressed in Escherichia coli/N-terminal His10-tagged wild-type recombinant human SOS1 catalytic domain (564 to 1049 residues) expressed in Escherichia coli protein-protein interaction at 1 mM incubated for 30 mins by 2D-NMR analysis.

Test [6] addresses Serine/threonine-protein kinase 32A (Homo sapiens) (UniProt Q8WU08). The test is described as follows: Inhibition of YANK1 (unknown origin) assessed as residual activity at 100 nM by KINOMEscan analysis relative to control.
Test [7] has as its target T2, Son of sevenless homolog 1 (Homo sapiens, UniProt Q07889).
T2 sequence (Q07889 whole entry): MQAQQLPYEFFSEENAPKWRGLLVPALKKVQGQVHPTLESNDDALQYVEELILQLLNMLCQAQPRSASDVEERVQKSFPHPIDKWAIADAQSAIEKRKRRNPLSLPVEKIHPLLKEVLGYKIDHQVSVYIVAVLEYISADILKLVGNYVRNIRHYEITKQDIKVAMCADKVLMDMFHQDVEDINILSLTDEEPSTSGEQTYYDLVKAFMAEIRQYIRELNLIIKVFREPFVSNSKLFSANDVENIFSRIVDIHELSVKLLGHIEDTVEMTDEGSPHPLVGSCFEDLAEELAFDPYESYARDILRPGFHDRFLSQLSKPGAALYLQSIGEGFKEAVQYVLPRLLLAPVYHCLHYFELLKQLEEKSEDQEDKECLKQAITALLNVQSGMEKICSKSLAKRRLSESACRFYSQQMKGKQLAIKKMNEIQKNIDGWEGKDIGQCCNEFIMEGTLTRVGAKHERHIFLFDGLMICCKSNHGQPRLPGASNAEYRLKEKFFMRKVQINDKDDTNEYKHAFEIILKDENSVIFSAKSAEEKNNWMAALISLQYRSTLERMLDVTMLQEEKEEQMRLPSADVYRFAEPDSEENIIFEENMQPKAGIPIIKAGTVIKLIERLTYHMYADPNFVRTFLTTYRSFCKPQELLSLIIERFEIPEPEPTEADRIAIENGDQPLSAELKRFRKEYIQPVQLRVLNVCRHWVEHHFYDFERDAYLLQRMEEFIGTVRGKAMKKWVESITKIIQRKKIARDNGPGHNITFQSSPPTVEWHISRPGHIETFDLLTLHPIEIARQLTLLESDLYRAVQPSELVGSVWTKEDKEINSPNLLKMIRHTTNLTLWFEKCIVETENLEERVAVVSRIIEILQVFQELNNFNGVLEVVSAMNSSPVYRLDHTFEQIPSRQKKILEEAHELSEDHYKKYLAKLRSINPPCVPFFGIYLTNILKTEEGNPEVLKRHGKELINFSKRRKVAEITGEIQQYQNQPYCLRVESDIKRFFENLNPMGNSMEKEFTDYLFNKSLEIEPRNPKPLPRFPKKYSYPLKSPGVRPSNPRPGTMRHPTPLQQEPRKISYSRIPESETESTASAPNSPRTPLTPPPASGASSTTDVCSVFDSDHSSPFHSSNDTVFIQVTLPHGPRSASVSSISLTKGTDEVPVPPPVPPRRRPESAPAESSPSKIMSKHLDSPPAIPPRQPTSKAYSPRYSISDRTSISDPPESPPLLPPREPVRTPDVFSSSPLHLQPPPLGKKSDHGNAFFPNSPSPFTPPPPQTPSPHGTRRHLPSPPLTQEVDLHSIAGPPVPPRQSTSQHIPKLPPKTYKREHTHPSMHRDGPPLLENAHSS
The test is described as follows: Inhibition of SOS1 in human Calu-1 cells assessed as reduction in RAS activation pretreated for 30 mins followed by EGF stimulation for 3 mins by G-LISA analysis. Format: cell-based.

Chain of Interleukin-1 receptor-associated kinase 1 (Homo sapiens) (P51617 whole entry, looked up, the tested form may be a part): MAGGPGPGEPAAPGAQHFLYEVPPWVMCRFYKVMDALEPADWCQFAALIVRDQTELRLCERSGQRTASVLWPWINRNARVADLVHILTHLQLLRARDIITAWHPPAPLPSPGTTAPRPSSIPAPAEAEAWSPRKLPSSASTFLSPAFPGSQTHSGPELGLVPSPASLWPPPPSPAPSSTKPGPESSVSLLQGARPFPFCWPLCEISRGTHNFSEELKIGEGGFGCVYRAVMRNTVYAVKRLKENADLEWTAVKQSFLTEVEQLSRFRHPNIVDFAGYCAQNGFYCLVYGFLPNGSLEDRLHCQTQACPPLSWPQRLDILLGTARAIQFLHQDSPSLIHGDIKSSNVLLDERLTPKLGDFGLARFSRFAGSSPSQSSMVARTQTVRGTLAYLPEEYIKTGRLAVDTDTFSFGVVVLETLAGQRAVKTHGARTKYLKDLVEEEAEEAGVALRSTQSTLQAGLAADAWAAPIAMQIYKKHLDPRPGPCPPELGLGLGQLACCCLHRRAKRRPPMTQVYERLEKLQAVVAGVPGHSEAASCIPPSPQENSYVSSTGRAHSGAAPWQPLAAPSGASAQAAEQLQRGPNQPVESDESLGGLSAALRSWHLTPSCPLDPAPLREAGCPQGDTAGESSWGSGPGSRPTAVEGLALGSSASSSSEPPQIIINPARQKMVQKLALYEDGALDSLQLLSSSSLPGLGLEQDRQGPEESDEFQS
Chain of Cyclin-dependent kinase 14 (Homo sapiens) (O94921 whole entry): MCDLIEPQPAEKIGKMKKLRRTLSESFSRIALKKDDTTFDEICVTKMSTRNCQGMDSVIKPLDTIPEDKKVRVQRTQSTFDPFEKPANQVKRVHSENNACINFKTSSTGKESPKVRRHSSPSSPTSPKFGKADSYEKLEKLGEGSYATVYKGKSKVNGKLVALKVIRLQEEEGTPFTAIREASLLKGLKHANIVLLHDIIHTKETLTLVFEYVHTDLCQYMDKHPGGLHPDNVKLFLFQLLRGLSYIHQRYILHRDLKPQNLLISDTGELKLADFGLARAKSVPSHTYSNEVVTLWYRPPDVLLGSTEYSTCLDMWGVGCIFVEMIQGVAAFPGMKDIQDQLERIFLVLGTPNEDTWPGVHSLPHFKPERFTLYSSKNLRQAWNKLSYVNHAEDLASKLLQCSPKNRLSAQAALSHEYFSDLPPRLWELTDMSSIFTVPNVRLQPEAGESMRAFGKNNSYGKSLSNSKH
Chain of Serine/threonine-protein kinase 26 (Homo sapiens) (Q9P289 2-416 limits assumed): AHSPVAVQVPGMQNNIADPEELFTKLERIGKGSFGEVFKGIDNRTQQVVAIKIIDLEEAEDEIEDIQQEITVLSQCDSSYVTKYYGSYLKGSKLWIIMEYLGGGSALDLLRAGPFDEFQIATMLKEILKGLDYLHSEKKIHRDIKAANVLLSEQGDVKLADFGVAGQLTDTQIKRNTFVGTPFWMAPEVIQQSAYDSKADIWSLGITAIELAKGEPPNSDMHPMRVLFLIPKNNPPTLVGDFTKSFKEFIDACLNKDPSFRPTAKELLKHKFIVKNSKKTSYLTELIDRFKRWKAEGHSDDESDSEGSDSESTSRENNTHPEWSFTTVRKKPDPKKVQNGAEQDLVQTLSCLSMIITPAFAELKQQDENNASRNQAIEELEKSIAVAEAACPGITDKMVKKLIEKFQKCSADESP
Chain of Serine/threonine-protein kinase 32A (Homo sapiens) (Q8WU08 whole entry): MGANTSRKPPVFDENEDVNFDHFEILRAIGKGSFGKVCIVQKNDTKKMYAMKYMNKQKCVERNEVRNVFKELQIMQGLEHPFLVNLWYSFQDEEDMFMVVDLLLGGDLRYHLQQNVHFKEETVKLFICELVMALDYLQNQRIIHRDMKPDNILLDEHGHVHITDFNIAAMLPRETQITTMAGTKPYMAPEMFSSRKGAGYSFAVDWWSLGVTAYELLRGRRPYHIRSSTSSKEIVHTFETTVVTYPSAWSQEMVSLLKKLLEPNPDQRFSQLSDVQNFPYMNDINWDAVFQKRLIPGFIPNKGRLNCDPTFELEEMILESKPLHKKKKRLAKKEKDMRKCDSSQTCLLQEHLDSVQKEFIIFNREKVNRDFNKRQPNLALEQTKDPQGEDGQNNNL

Regarding `COc1cc2ncnc(N[C@H](C)c3cccc4ccccc34)c2cc1OC`, the Activity in test [1] was 80%; in test [2], 88%; in test [3], 91%; in test [4], 94%; in test [6], 61%. The result in test [5] was Active.
`COc1cc2nc(C)nc(NC(C)c3ccc(-c4cnc5n4CCC5)s3)c2cc1OC` (configuration not stated): the half-maximal inhibitory concentration (IC50) (in general, the concentration that inhibits the measured activity by half) in test [7] amounted to 2000 nM.
